“And” between values parts separate entries of the source, which are not always exact repeats. Equal entries are not always repeated. Where two headings read alike, the source gives them in different places.
How the values were obtained:
[1] = tested on: E. coli/pET-22b (Control); assay: Disk diffusion assay; format: cell-based, E. coli BL21 Rosetta (DE3); conditions: Escherichia coli, 24 h, read-out: inhibition zones
Procedure: The E. coli BL21 Rosetta (DE3) strains containing pET22b, and its carrying cph, cph001, cph002, cph003, aph(3′)-Ia, and mphB plasmids were cultured overnight. The cells, respectively, were then diluted to 0.1 OD600 in molten LB agar with 100 μg/mL ampicillin and 500 μM IPTG for the disk diffusion assay. The cells with ampicillin and IPTG were mixed well with molten LB agar and then poured into 10 cm diameter Petri dishes. […] The Petri dishes were placed in the incubator at 37 °C and the inhibition zones were observed after 24 hr.

Cph001 = assay: Coupled enzyme assay and Michaelis-Menten kinetics of Cph001; format: biochemical, Streptosporangium roseum; conditions: for initial velocity, Figure 3c ii, Triplicate: 2 mM GTP; for initial velocity, Figure 3c i, Triplicate: 2 mM ATP; for absorbance at 340 nm, Average of triplicate: 2 mM substrate + ATP
Procedure: The phosphorylation reaction was measured by a coupled enzyme assay as following. […] The reactions were mixed well in a final volume of 200 μL in 96-well plates. The Cph001 activity was assayed by determining the oxidation of NADH at 340 nm. The reaction buffer and enzyme concentration of the Cph reaction was followed by previous study. The 340 nm absorbance changes were detected at 30 °C for every 1 min at a time in 15 min on an EPOCH Microplate Reader (BioTek). All reactions were carried out in triplicate.
The initial velocity data were plotted against substrate concentrations and fit the Michaelis-Menten equation. The Km and Vmax values were calculated based on the Michaelis-Menten equation. GraphPad Prism was used for statistical data analysis. All reactions were carried out in triplicate.

SMILES: N=C1NCCC([C@@H]2NC(=O)/C(=C/NC(N)=O)NC(=O)[C@H](CNC(=O)C[C@@H](N)CCCN)NC(=O)[C@H](CO)NC(=O)[C@@H](N)CNC2=O)N1 (stereo in doubt) [CMN IIA]
- zone of inhibition at 12.5 µg/disc [1]: 17 mm
- zone of inhibition at 50 µg/disc [1]: 22 mm
- zone of inhibition at 100 µg/disc [1]: 24 mm
- zone of inhibition at 200 µg/disc [1]: 27.5 mm
- initial velocity, Figure 3c ii, Triplicate (Cph001; 0.4 mM CMN IIA): 5.814e-5 and 4.992e-5 and 4.228e-5
- initial velocity, Figure 3c i, Triplicate (Cph001; 0.5 mM CMN IIA): 0.0001245 and 0.0001897 and 0.0001595
- initial velocity, Figure 3c ii, Triplicate (Cph001; 0.5 mM CMN IIA): 6.636e-5 and 7.341e-5 and 7.765e-5
- initial velocity, Figure 3c i, Triplicate (Cph001; 0.7 mM CMN IIA): 0.0002053 and 0.000222 and 0.0002263
- initial velocity, Figure 3c ii, Triplicate (Cph001; 0.7 mM CMN IIA): 9.514e-5 and 7.693e-5 and 6.952e-5
- initial velocity, Figure 3c i, Triplicate (Cph001; 1 mM CMN IIA): 0.0002288 and 0.0002649 and 0.0003551
- initial velocity, Figure 3c ii, Triplicate (Cph001; 1 mM CMN IIA): 0.0001233 and 0.000121 and 0.0001065
- initial velocity, Figure 3c i, Triplicate (Cph001; 2 mM CMN IIA): 0.0003304 and 0.0004291 and 0.0004233
- initial velocity, Figure 3c ii, Triplicate (Cph001; 2 mM CMN IIA): 0.0002014 and 0.0002003 and 0.0001825
- phosphorylation by Cph001 in couple enzyme assay (Cph001; 2 mM antibiotic substrate, ATP as phosphate donor, absorbance at 340 nm): decrease in absorbance at 340 nm
- initial velocity, Figure 3c i, Triplicate (Cph001; 4 mM CMN IIA): 0.0003294 and 0.0004402 and 0.000432
- initial velocity, Figure 3c ii, Triplicate (Cph001; 4 mM CMN IIA): 0.0001744 and 0.0002267 and 0.0002057
- initial velocity, Figure 3c i, Triplicate (Cph001; 6 mM CMN IIA): 0.0003263 and 0.0004514 and 0.0003777
- initial velocity, Figure 3c ii, Triplicate (Cph001; 6 mM CMN IIA): 0.0002402 and 0.000232 and 0.000183
- Km (Cph001; ATP as phosphate donor (2 mM), pseudo-first-order conditions, mean ± SEM, n = 3, read-out: apparent Michaelis constant (Km) of CMN IIA): 880 ± 200 µM
- Km (Cph001; ATP series, first manuscript version as quoted by Reviewer #1, read-out: measured Km of CMN IIA): 876 µM
- Km (Cph001; GTP series, first manuscript version as quoted by Reviewer #1, read-out: measured Km of CMN IIA): 1400 µM
- Km (Cph001; saturating GTP as phosphate donor (2 mM), mean ± SEM, n = 3, read-out: apparent Km of CMN IIA): 1400 ± 240 µM
- absorbance at 340 nm, Average of triplicate (Cph001; time 00:00:00): 1.495
- absorbance at 340 nm, Average of triplicate (Cph001; time 00:01:00): 1.277
- absorbance at 340 nm, Average of triplicate (Cph001; time 00:02:00): 0.9337
- absorbance at 340 nm, Average of triplicate (Cph001; time 00:03:00): 0.6673
- absorbance at 340 nm, Average of triplicate (Cph001; time 00:04:00): 0.5687
- absorbance at 340 nm, Average of triplicate (Cph001; time 00:05:00): 0.52
- absorbance at 340 nm, Average of triplicate (Cph001; time 00:06:00): 0.3975
- absorbance at 340 nm, Average of triplicate (Cph001; time 00:07:00): 0.2841
- absorbance at 340 nm, Average of triplicate (Cph001; time 00:08:00): 0.2044
- absorbance at 340 nm, Average of triplicate (Cph001; time 00:09:00): 0.1613
- absorbance at 340 nm, Average of triplicate (Cph001; time 00:10:00): 0.1364
- absorbance at 340 nm, Average of triplicate (Cph001; time 00:11:00): 0.1231
- absorbance at 340 nm, Average of triplicate (Cph001; time 00:12:00): 0.1177
- absorbance at 340 nm, Average of triplicate (Cph001; time 00:13:00): 0.1173
- absorbance at 340 nm, Average of triplicate (Cph001; time 00:14:00): 0.1173
- absorbance at 340 nm, Average of triplicate (Cph001; time 00:15:00): 0.1177
